What was measured:
[1] = The drug is tested on Z-030 corresponding to mouse gut metagenome with ENA study accession number: PRJEB37062 and ENA sample accession number: ERS12561829 for biotransformation under anaerobic condition. The drug concentrations were measured over 9 timepoints collected between 0 and 24 hours of incubation by liquid-chromatography-coupled mass spectrometry (LC–MS); conditions: 2 µM
[2] = human gut metagenome, 24 h, 2 µM
[3] = The drug is tested on WLS-006 corresponding to human gut metagenome with ENA study accession number: PRJEB37062 and ENA sample accession number: ERS12561741 for biotransformation under anaerobic condition. The drug concentrations were measured over 9 timepoints collected between 0 and 24 hours of incubation by liquid-chromatography-coupled mass spectrometry (LC–MS); conditions: 2 µM
[4] = human gut metagenome, 24 h, 2 µM; remark: listed apart in the source
[5] = The drug is tested on Z-014 corresponding to rat gut metagenome with ENA study accession number: PRJEB37062 and ENA sample accession number: ERS12561814 for biotransformation under anaerobic condition. The drug concentrations were measured over 9 timepoints collected between 0 and 24 hours of incubation by liquid-chromatography-coupled mass spectrometry (LC–MS); conditions: 2 µM
[6] = The drug is tested on WLS-370 corresponding to human gut metagenome with ENA study accession number: PRJEB37062 and ENA sample accession number: ERS12561793 for biotransformation under anaerobic condition. The drug concentrations were measured over 9 timepoints collected between 0 and 24 hours of incubation by liquid-chromatography-coupled mass spectrometry (LC–MS); conditions: 2 µM
[7] = The drug is tested on Z-022 corresponding to mouse gut metagenome with ENA study accession number: PRJEB37062 and ENA sample accession number: ERS12561821 for biotransformation under anaerobic condition. The drug concentrations were measured over 9 timepoints collected between 0 and 24 hours of incubation by liquid-chromatography-coupled mass spectrometry (LC–MS); conditions: 2 µM
[8] = The drug is tested on WLS-310 corresponding to human gut metagenome with ENA study accession number: PRJEB37062 and ENA sample accession number: ERS12561785 for biotransformation under anaerobic condition. The drug concentrations were measured over 9 timepoints collected between 0 and 24 hours of incubation by liquid-chromatography-coupled mass spectrometry (LC–MS); conditions: 2 µM
[9] = human gut metagenome, 24 h, 2 µM; remark: listed apart in the source
Also: call rule not given here.

| SMILES | Bacterial Biotransformation [1] | Bacterial Biotransformation [2] | Bacterial Biotransformation [3] | Bacterial Biotransformation [4] | Bacterial Biotransformation [5] | Bacterial Biotransformation [6] | Bacterial Biotransformation [7] | Bacterial Biotransformation [8] | Bacterial Biotransformation [9] |
| --- | --- | --- | --- | --- | --- | --- | --- | --- | --- |
| COc1ccc(/C=C/C(=O)Nc2ccccc2C(=O)O)cc1OC | Compound NOT metabolized | Compound NOT metabolized | Compound NOT metabolized | Compound NOT metabolized | Compound metabolized | Compound NOT metabolized | Compound metabolized | Compound metabolized | Compound NOT metabolized |
| N[C@@H](Cc1ccc(N(CCCl)CCCl)cc1)C(=O)O |  | Compound metabolized | Compound metabolized |  |  | Compound NOT metabolized |  |  | Compound metabolized |
| CN(C)CCc1c[nH]c2ccc(CS(=O)(=O)N3CCCC3)cc12 [ALMOTRIPTAN] |  | Compound NOT metabolized | Compound NOT metabolized | Compound NOT metabolized |  | Compound NOT metabolized |  | Compound metabolized | Compound NOT metabolized |
| O=C1CCc2ccc(OCCCCN3CCN(c4cccc(Cl)c4Cl)CC3)cc2N1 [ARIPIPRAZOLE] | Compound NOT metabolized |  |  |  | Compound metabolized |  | Compound metabolized |  |  |
| CCCCC(=O)O[C@]1(C(=O)CO)[C@@H](C)C[C@H]2[C@@H]3CCC4=CC(=O)C=C[C@]4(C)[C@@]3(F)[C@@H](O)C[C@@]21C [BETAMETHASONE VALERATE] |  | Compound NOT metabolized | Compound metabolized | Compound metabolized |  | Compound NOT metabolized |  | Compound metabolized | Compound NOT metabolized |
| CC(=O)Oc1ccc(C(c2ccc(OC(C)=O)cc2)c2ccccn2)cc1 [BISACODYL] |  | Compound metabolized | Compound metabolized | Compound metabolized |  | Compound metabolized |  | Compound metabolized | Compound metabolized |
| Cc1nc(Nc2ncc(C(=O)Nc3c(C)cccc3Cl)s2)cc(N2CCN(CCO)CC2)n1 [DASATINIB ANHYDROUS] |  | Compound NOT metabolized | Compound metabolized | Compound metabolized |  | Compound metabolized |  | Compound metabolized | Compound NOT metabolized |
| CNCC[C@H](Oc1cccc2ccccc12)c1cccs1 [DULOXETINE] |  | Compound NOT metabolized | Compound metabolized | Compound NOT metabolized |  | Compound NOT metabolized |  | Compound metabolized | Compound NOT metabolized |
| COCCCC/C(=N\OCCN)c1ccc(C(F)(F)F)cc1.O=C(O)/C=C\C(=O)O [FLUVOXAMINE MALEATE] |  | Compound NOT metabolized | Compound metabolized | Compound NOT metabolized |  | Compound metabolized |  | Compound metabolized | Compound NOT metabolized |
| CC#CCn1c(N2CCC[C@@H](N)C2)nc2c1c(=O)n(Cc1nc(C)c3ccccc3n1)c(=O)n2C [LINAGLIPTIN] |  | Compound NOT metabolized |  | Compound NOT metabolized |  | Compound NOT metabolized |  | Compound NOT metabolized | Compound NOT metabolized |
| CN1CCN(C2=Nc3ccccc3Oc3ccc(Cl)cc32)CC1.O=C(O)CCC(=O)O [LOXAPINE SUCCINATE] |  | Compound NOT metabolized | Compound NOT metabolized | Compound NOT metabolized |  | Compound NOT metabolized |  | Compound NOT metabolized | Compound NOT metabolized |
| CCOC(=O)C1=C(C)NC(C)=C(C(=O)OC)C1c1cccc([N+](=O)[O-])c1 (stereo not drawn) [NITRENDIPINE] |  | Compound metabolized | Compound metabolized | Compound metabolized |  | Compound metabolized |  | Compound metabolized | Compound metabolized |
| N#Cc1ccc2c(c1)N(CCCN1CCC(O)CC1)c1ccccc1S2 [PERICIAZINE] |  | Compound NOT metabolized | Compound NOT metabolized | Compound metabolized |  | Compound NOT metabolized |  | Compound metabolized | Compound NOT metabolized |
| O=C1N=C([O-])NC1(c1ccccc1)c1ccccc1.[Na+] [PHENYTOIN SODIUM] |  | Compound NOT metabolized | Compound metabolized | Compound metabolized | Compound NOT metabolized | Compound metabolized |  | Compound metabolized | Compound NOT metabolized |
| O=C([O-])C[C@H](O)C[C@H](O)/C=C/c1c(C2CC2)nc2ccccc2c1-c1ccc(F)cc1.O=C([O-])C[C@H](O)C[C@H](O)/C=C/c1c(C2CC2)nc2ccccc2c1-c1ccc(F)cc1.[Ca+2] [PITAVASTATIN CALCIUM] |  | Compound metabolized | Compound metabolized | Compound metabolized |  | Compound NOT metabolized |  | Compound metabolized | Compound metabolized |
| CNNCc1ccc(C(=O)NC(C)C)cc1 [PROCARBAZINE] |  | Compound NOT metabolized |  | Compound NOT metabolized | Compound NOT metabolized | Compound metabolized | Compound metabolized | Compound metabolized | Compound NOT metabolized |
| CC(=O)SCC(Cc1ccccc1)C(=O)NCC(=O)OCc1ccccc1 (stereo not drawn) [RACECADOTRIL] | Compound metabolized |  |  |  | Compound metabolized |  | Compound metabolized |  |  |
| CN(C/C=C/C#CC(C)(C)C)Cc1cccc2ccccc12 [TERBINAFINE] | Compound NOT metabolized | Compound NOT metabolized |  | Compound NOT metabolized | Compound NOT metabolized | Compound NOT metabolized |  | Compound metabolized | Compound NOT metabolized |
| CCS(=O)(=O)CCn1c([N+](=O)[O-])cnc1C [TINIDAZOLE] | Compound metabolized | Compound metabolized | Compound metabolized |  | Compound metabolized | Compound metabolized | Compound metabolized | Compound metabolized | Compound metabolized |

— ChEMBL document CHEMBL5724914, “Linking interpersonal differences in gut microbiota composition and drug biotransformation activity” (2024)
